Reference: PMC6054100, “Exploring the chemical space of the lysine-binding pocket of the first kringle domain of hepatocyte growth factor/scatter factor (HGF/SF) yields a new class of inhibitors of HGF/SF-MET binding” (Chemical Science, 2015)

Assays:
NK1 = NK1 (Homo sapiens, UniProt P14210); assay: 1H-15N TROSY-HSQC NMR chemical shift titration of 15N-labelled NK1; format: binding; design: made in house; host or cells: Pichia pastoris
Protocol: Ligand screening was performed by monitoring the chemical shift variations in ^1H-^15N TROSY-HSQC NMR spectra of the uniformly [^15N]-labelled NK1 protein (Fragai et al. 2015, in prep.) upon the addition of increasing concentrations of the investigated compounds.[43]–[45] The experiments were performed using 0.18 mM protein samples in 25 mM Tris, 100 mM NaCl and 0.01% sodium azide, at pH 7.2 with 10% D2O. The spectra were recorded at 310 K on a Bruker AVANCE 900 MHz spectrometer equipped with a TXI cryo-probe. Sample solutions were prepared from 1 M or 100 mM DMSO stock solutions of the ligands. The dissociation constant values (KD) were calculated by plotting the weighted average ^1H and ^15N chemical shifts of the residues experiencing significant variations as a function of ligand concentration added during the titration and considering the one site binding model.[46]

[1] = test system: MET downstream signalling (Erk 1/2, Akt) in Vero cells; assay: MET, Erk1/2 and Akt phosphorylation assay in NK1-stimulated Vero cells (Western blot); format: cell-based; settings: Vero cells stimulated with NK1; compound 1 mM (lane 5), 0.1% DMSO
Protocol: We evaluated the effect of piperazine-like compounds and MB605 on Vero cells by assessing MET, Erk 1/2 and Akt phosphorylation in response to stimulation using […] NK1. MB605 was dissolved in DMSO, which limited the range of concentrations tested to ≤1 mM in order to avoid solvent effects on cell function/viability. The water-soluble piperazine-like compounds, in contrast, could be tested at concentrations up to 100 mM.
Fig. 6 Biological activity of the piperazine-like compounds and MB605. (a–e) Vero cells expressing the receptor endogenously on their cell surface were stimulated with HGF/SF or NK1 and phosphorylation of MET and downstream targets Akt and Erk1/2 was analysed. Piperazine-like compounds HEPES (a), (H)EPPS (b), MES (c), MOPS (d) and CAPS (e) were tested at 100 mM (lanes 4), 10 mM (lanes 5), 1 mM (lanes 6) and 100 μM (lanes 7) concentration in the presence of 1 nM NK1. To control for activating or inhibiting effects of the compounds independently of MET, piperazine-like compounds were tested on cells at 100 mM without stimulation by NK1 (lanes 3). Biological activity of MB605 (f) was investigated at 1 mM (lane 5), 100 μM (lane 6) and 10 μM (lane 7) in the presence of a constant concentration of DMSO (0.1%). A solvent control (0.1% DMSO, lane 3) was included in order to account for the effect of DMSO on the cells. A positive control (1 nM NK1 in the presence of 0.1% DMSO) is shown in lane 4. In all experiments, un-stimulated cells served as negative control (lanes 1) while cells stimulated with 1 nM NK1 served as positive control (lanes 2).
The ability of MB605 and the piperazine-like compounds to inhibit MET, Erk and Akt phosphorylation in the presence of NK1 was tested using mammalian Vero cells as described by Ferraris et al.[47] and further details are given in the ESI ^† section of the manuscript. […]
For MET, Erk1/2 and Akt phosphorylation assays, Vero cells were seeded at 2.1 × 10^5 cells we ll -1 (2 ml we ll -1) in 6-well plates and grown to 90% conf luence in 10% FCS/DMEM media and then switched to serum-free medium (to avoid any growth f actors present in the serum).
24 hours post starvation the cells were stimulated for 5 min at 37°C with each individual piperazine -like compounds as well as with NK1 (1 nM) pre-incubated with different concentrations of the piperazine- like compounds (100 mM, 10 mM, 1 mM and 100 μM) or MB605 (1 mM, 100 μM and 10 μM). Stimulations with either 0. 1% DMS O or 1 nM of NK1 […]
solution were used as a negative and a positive control, respectively. The cells were then washed in PBS buffer, lysed on ice f or 30 min and frozen at -80 °C until further analysis. For

[2] = target: T1, lysine-binding pocket of the kringle domain of NK1 (Homo sapiens, UniProt P14210); assay: Soaking into NK1 apo crystals, X-ray crystallography; settings: soaked into NK1 apo crystals
T1 construct: made in house; host or cells: Pichia pastoris
T1 sequence (P14210 32-210 isoform P14210-6 limits assumed): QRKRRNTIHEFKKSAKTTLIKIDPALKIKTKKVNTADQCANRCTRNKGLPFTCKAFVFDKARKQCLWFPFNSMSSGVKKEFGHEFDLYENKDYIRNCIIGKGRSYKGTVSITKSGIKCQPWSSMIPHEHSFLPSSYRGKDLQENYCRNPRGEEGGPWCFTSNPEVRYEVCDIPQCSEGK
Protocol: Next, three classes of piperazine-like sulphonated compounds containing piperazine ((H)EPPS and PIPES), morpholine (MES and MOPS), or cyclohexane (CHES and CAPS) rings were studied for their binding to NK1 (Table 1), alongside another five sulphonated compounds selected from a chemical fragment library (Table 2).
NK1 buffered in 150 mM NaCl, 50 mM Tris, pH 7.5 (apo-NK1 and all soaking experiments) was concentrated to ∼20 mg mL^–1 using a Vivaspin device with a 10 kDa cut-off membrane (Sartorius Biolab). Crystallisation was carried out in Linbro plates by the vapour diffusion hanging drop technique using a protein : precipitant ratio of 1 : 1 at 20 °C. Previously NK1 has been crystallised in 18% PEG 4000, 200 mM sodium acetate and 150 mM Tris pH 8.5 as precipitant.[19] Here final crystallisation conditions (19% PEG 4000, 200 mM sodium acetate and 150 mM Tris pH 7.5) were optimised around those to achieve high-resolution apo structure. Details of compound soaking, X-ray data collection and structure determination are given in the ESI ^† section of the manuscript. […]
For this, 1 M stock solutions were prepared in DMSO (fragments) or water (piperazine- like compounds) and the pH adjusted to a value within their buffering range with either HCl or NaOH. The seven piperazine- like compounds and their respective pH are: HEPES (pH 7.6), (H)EPPS (pH 7.4), PIPES (pH 7.0), MES (pH 5.8), MOPS (pH 7.2), CHES (pH 8.6) and CAPS (pH 9.7). Secondary stocks of the compounds at 50 mM were prepared in the […]
respective mother liquor and soaked for up to 48 hours.
MB605 was solubilised in 50% DMSO at 20 mM concentration (1% f inal DMSO concentration in the drop) in order to minimize adverse effects of DMSO on the protein crystal. 25% ethylene glycol was used as the cryoprotective agent.
X-ray data collection and processing
X-ray datasets were collected either at the European Synchrotron Radiation Facility (ESRF, Grenoble, France), the Diamond Light Source (DLS, Oxford, UK) or in-house using the X8 PROTEUM (Bruker AXS) at the Department of Biochemistry, University of Cambridge.
Datasets of at least 180° were collected. Raw data collected at synchrotrons were integrated, merged, scaled and reduced using DENZO and […].2 Raw data […]
collected in- house were integrated, merged, scaled and reduced using the PROTEUM 2 software package .3 The CCP4 suite of crystallographic programs (Collaborative

NK1, sequence (P14210 32-210 isoform P14210-6 limits assumed): as above

## O=C(O)CCc1ccco1 [MB605]
NK1; 1H-15N TROSY-HSQC, residues in and around the lysine-binding pocket
  variation in chemical shifts for NK1 residues: showed variation in chemical shifts
NK1; NMR chemical shift titration, read-out: KD
  Kd: 110 µM
[1]
  Activity on NK1-induced MET, Erk 1/2 and Akt phosphorylation: active
[2]
  binding in the lysine-binding pocket (crystal structure): binds in the lysine-binding pocket
